# Experimental data: patent US20230248762A1, “Method and composition for supporting normal blood calcium concentrations in mammals” (Contract Manufacturing Services, LLC, priority 2022, published 2023)
# Columns and labels:
# [1] = test system: blood calcium; details: oral 50 g calcium; cited from earlier work
# [2] = test system: plasma calcium concentration; experiment: Plasma calcium after calving, herds without anionic diet (Example 5); type: in vivo, multiparous cows
# Source text: For examples 2 thru 5, statistical analysis consisted of repeated measures analysis of variance with cow nested within treatment and time after bolus administration as the repeated measure. Treatment plasma calcium means were compared at each time point using Tukey's test of comparison of means and differences are declared to be significant when the probability of the null hypothesis being correct is P<0.075.
# In Example 5, multiparous cows were utilized from several small farms that were not utilizing an anionic diet to reduce the incidence of hypocalcemia in the cows. Within a few hours of calving, cows were administered one of four treatments. Six cows were not treated with any bolus after calving (No Bolus). Four cows were treated with intravenous calcium (10.5 g calcium in the form of calcium gluconate) after calving (IV Ca). Twenty-two cows received 2 boluses after calving that contained calcium salts and Solanum glaucophyllum leaf, supplying 78 g calcium and 1,25-dihydroxyvitamin D3 glycoside equivalent to 196 ug 1,25-dihydroxyvitamin D3 (Ca+SG Bolus). Twenty-four cows were treated at calving and again 12-24 hrs. later with commercial oral calcium salt boluses that supplied 40-44 g calcium each for a total calcium dose of 80-88 g, primarily from calcium chloride (Ca Bolus).
compound,measurement,setting,value
[Ca+2].[Cl-].[Cl-] [calcium chloride],calcium absorbed into the blood,[1],about 4 g
same,duration of increase of blood calcium,[1],6 to 8 h
same,increase of blood calcium,[1],approximately 1 mg/dl
same,time to increase of blood calcium,[1],≤ 1 h
calcium gluconate [Ca IV],effect on calcium homeostasis mechanisms of the cow,[2]; 10.5 g calcium intravenous,inhibited the calcium homeostasis mechanisms
same,"plasma calcium concentration, rank among treatments",[2]; 24 to 84 hours after calving,lowest plasma calcium concentration
same,hypocalcemia versus no treatment,[2]; days 2 and 3 following lactation,more hypocalcemia
same,"plasma calcium concentration, rank among treatments",[2]; four hours after calving,highest plasma calcium concentration
